{"source": "patent US10463679B2", "about": "“Compressed capsules for giving birth to males” (priority 2016, dated 2019)", "origin": "cited, not measured here", "key": {"[1]": {"details": "manufacturer's web site and prescription accompanying Florinef tablet"}, "[2]": {"details": "one liter administered intravenously; glucose 5% + water, saline 9% sodium chloride + water, albumin"}, "[3]": {"system": "mice", "details": "for mice"}, "[4]": {"details": "sodium and chloride intake per day"}}}
{"molecule": "C[C@]12CCC(=O)C=C1CC[C@H]1[C@@H]3CC[C@](O)(C(=O)CO)[C@@]3(C)C[C@H](O)[C@@]12F", "note": "[Fludrocortisone]", "values": [{"measurement": "side effects of the drug", "setting": "[1]", "result": "skin thinning and fragility"}]}
{"molecule": "Saline", "values": [{"measurement": "distribution of the solution among the three regions (intracellular, intercellular, blood vessels)", "setting": "[2]", "result": "distributed among the three regions but precipitated in the intercellular region"}]}
{"molecule": "[Cl-].[Na+]", "note": "[Sodium chloride]", "values": [{"measurement": "lethal dose", "setting": "[3]", "result": 2.5, "unit": "g/kg per day"}, {"measurement": "harmful dose", "setting": "[4]", "result": 1000, "unit": "g per day"}]}
